According to US20260193295A1, “CILAGICIN COMPOUNDS AND METHODS OF USE THEREOF” (priority 2022, published 2026):
Values after ≈ are worked out from the molar mass of the structure shown. Positions of bridges follow the written chain, without caps; N, C: chain ends. Non-standard residues stand in square brackets, D forms with d. Residues, ends and D or L forms follow the SMILES beside them. *: point of attachment. Myristoyl = CCCCCCCCCCCCCC(=O)*; dDab = NCC[C@@H](N)C(=O)O; Dab = NCC[C@H](N)C(=O)O

Assays:
[1] = system: S. aureus USA300; test: Time-dependent killing assay; type: cell-based, Staphylococcus aureus; conditions: S. aureus USA300, 10x the MIC
Description: An overnight culture of S. aureus USA300 was diluted 1:10,000 in 50 mL fresh LB and incubated at 37° C. with aeration at 220 rpm for 2 hours. Bacteria (3 mL) were challenged with 10× the MIC of each antibiotic (10 μg/mL cilagicin, 10 μg/mL vancomycin). After 1.25, 4, 8, 16 and 24 hours 200 μL aliquots of cells were collected, centrifuged at 10,000×g for 1 minute and then resuspended in 200 μL of sterile PBS (pH 7.4). 50 μL aliquots of 10-fold serial dilutions were plated on LB agar plates. After overnight growth at 37° C., colonies were counted. Experiments were performed three independent times (n=3).

[2] = mice, intraperitoneal (IP) injection
[3] = system: Streptococcus pyrogens; type: cell-based
Description: (§1) MIC assay were conducted using the protocol recommended by the Clinical and Laboratory Standards Institute.(37) Culture conditions (temperature, medium) are detailed in Table 3. All compounds were dissolved in sterile DMSO (ATCC, USA) to give a concentration of 6.4 mg/mL. Vancomycin hydrochloride was used as positive controls. Tested compounds were serially diluted across 96-well plates using a 2-fold serial dilution in a volume of 50 μL. An overnight culture of an assay strain was diluted 5,000-fold in fresh medium. 50 μL of this dilution was added into each well, giving a final volume of 100 μL in each well. Compounds were assayed at concentrations ranging from 64 μg/mL to 0.06 μg/mL. The top and bottom rows of each plate were filled with 100 μL of media to avoid edge effects. […] For Clostridium difficile plates were statically incubated under anaerobic conditions (Vinyl anaerobic chamber, 37° C., 5% H2, 5% CO2, 90% N2). For Streptococcus pneumoniae plates were statically incubated under aerobic conditions supplemented with 5% C02 (37° C.). All MICs were performed in technical duplicate (n=2) and repeated three independent times (n=3).

[4] = system: Klebsiella pneumoniae; type: cell-based
Description: as §1

[5] = system: Staphylococcus aureus; type: cell-based; conditions: S. aureus, presence versus absence of serum (10% serum)
Description: as §1

[6] = system: Gram-positive pathogens; type: cell-based
Description: as §1

[7] = system: Streptococcus agalactiae; type: cell-based
Description: as §1

[8] = system: Acinetobacter baumannii; type: cell-based
Description: as §1

[9] = system: Pseudomonas aeruginosa; type: cell-based
Description: as §1

[10] = system: Enterococcus gallinarum; type: cell-based
Description: as §1

[11] = system: Bacillus subtilis; type: cell-based
Description: as §1

[12] = system: Streptococcus pneumoniae; type: cell-based
Description: as §1

[13] = system: Enterococcus casseliflavus; type: cell-based
Description: as §1

[14] = system: Enterococcus faecalis; type: cell-based
Description: as §1

[15] = system: Enterobacter cloacae; type: cell-based
Description: as §1

[16] = system: Enterococcus faecium; type: cell-based
Description: as §1

[17] = system: S. aureus USA300; test: Scanning electron microscopy of treated cells; type: cell-based, Staphylococcus aureus; conditions: S. aureus USA300, 10x the MIC, 0-4 hours
Description: S. aureus USA300 cultures at different time points from the time-kill curve analysis (FIG. 2A, 0, 1, 2, and 4 hours) were used in this study. 30 μl of each cell suspension was spotted onto 12 mm glass or Aclar film round coverslips. A drop of fixative (100 μl of 2% glutaraldehyde, 4% formaldehyde in 0.1 M sodium cacodylate buffer pH 7.2) was added on top of the coverslip which was coated with 0.1% polylysine. After 30 minutes, additional fixative was added to the dish containing the coverslips and samples were left at 4° C. overnight. Samples were gently washed three times with 0.1 M sodium cacodylate buffer (pH 7.2) for 5-10 minutes each time and postfixed with osmium tetroxide 1% in 0.1M sodium cacodylate buffer pH 7.2 for 1 hour at room temperature. After rinsing three times with buffer, samples were dehydrated in a graded series of ethanol concentrations (30%, 50%, 70%, 90%) for 10 minutes each and three times in 100% ethanol (with molecular sieves) for 15 minutes each and then further dried in a critical point drier (Tousimis Autosamdri 931, USA). Samples were coated with 10 nm of iridium using a Leica ACE600 sputter coater.

With `CCCCCCCCCCCCCC(=O)N[C@H](CO)C(=O)N[C@@H]1C(=O)N[C@H](CCN)C(=O)N[C@@H](CC(=O)O)C(=O)NCC(=O)N[C@H](CC(N)=O)C(=O)N[C@H](CC(=O)O)C(=O)NCC(=O)N[C@@H](Cc2ccc(O)cc2)C(=O)N[C@@H](C(C)C)C(=O)N[C@@H](CCN)C(=O)N[C@@H](Cc2ccccc2)C(=O)O[C@@H]1C` [Cilagicin] (Myristoyl-[dS]T[dDab]DG[dN][dD]GYV[Dab]F; ester 2-C) the “time-dependent killing curve analysis, kind of action” value [1] was “bactericidal”, the “reduction of the number of viable bacteria” value ([1]; after 4 hours) was “more than four orders of magnitude” and the plasma bioavailability [2] was “high plasma bioavailability”. For the same compound, the “Cilagicin MIC” value [3] was 0.125 µg/mL, the MIC [3] was 0.125 µg/mL (≈ 0.0852 µM) and the “Cilagicin MIC” value [4] was >64 µg/mL. The “antibacterial activity (MIC) in the presence of serum” value [5] was “significantly suppressed”, the MIC [6] was 1 µg/mL (≈ 0.682 µM) and the MICs [6] was ≤ 0.25 µg/mL. The “minimum inhibitory concentrations (MIC)” value [6] was 0.125 to 2 µg/mL, the “Cilagicin MIC” value [7] was 1 µg/mL and the MIC [7] was 1 µg/mL (≈ 0.682 µM). The “Cilagicin MIC” value [8] was 8 µg/mL, the MIC ([8]; A. baumannii (Table 5)) was 8 µg/mL (≈ 5.45 µM) and the “Cilagicin MIC” value [9] was >64 µg/mL. The “Cilagicin MIC” value [10] was 0.5 µg/mL, the “Cilagicin MIC” value [11] was 2 µg/mL and the MIC [12] was 0.25 µg/mL (≈ 0.17 µM). For the same compound, the “Cilagicin MIC” value [13] was 0.125 µg/mL, the “Cilagicin MIC” value [14] was 0.5 µg/mL and the “Cilagicin MIC” value [15] was >64 µg/mL. The “Cilagicin MIC” value [16] was 0.5 µg/mL, the MIC [16] was 0.5 µg/mL (≈ 0.341 µM) and the “electron microscopy images of treated cells” value [17] was “cell collapse over time”.
